Laboratory results reported in US6258776A, “Calcium-regulated kinase” (priority 1997, dated 2001).

How the values were obtained:
[1] = tested on: calmodulin (CaM-agarose); assay: binding of Ndr and deletion mutants from COS-1 cell lysates to CaM-agarose
Text: In addition, the ability of untagged Ndr to interact with CaM is investigated. COS-1 cells are transfected with pECE or with derivative plasmids encoding wild-type Ndr, NdrΔ65-81 or NdrΔ1-84 (Millward, T. A., et al., (1995) Proc. Natl. Acad. Sci. USA 92, 5022-5026) using DEAE-dextran (Seed, B. and Aruffo, A. (1987) Proc. Natl. Acad. Sci. USA 84, 3365-3369). Seventy-two hours after transfection, cells are scraped into ice-cold phosphate-buffered saline (PBS), spun down, and disrupted in buffer A (TBS containing 1 mM dithiothreitol, 0.5 mM phenylmethylsulfonyl fluoride, 4 μM leupeptin and 1 mM benzamidine) using a tight-fitting all-glass dounce homogenizer. Extracts (20 μg) are adjusted to 1 mg/ml, supplemented with either 1 mM CaCl2 or 1 mM EGTA and then mixed for 2 h with 6 μl CaM-agarose. After washing three times with 1 ml of the corresponding binding buffer, the beads are eluted with buffer A containing 5 mM EGTA. Equal portions of the unbound and EGTA-eluted fractions are analysed by immunoblofting with anti-Ndr antibodies.
Samples are separated by SDS-PAGE and electroblotted to Immobilon-P membranes (Millipore). Blots are incubated in blocking buffer (50 mM Tris-HCl pH 7.5, 150 mM NaCl, 1% (v/v) Triton X-1 00, 0.5% (v/v) Tween 20, 5% (w/v) skim milk powder) and then probed for 2 h with primary antibodies diluted in the same buffer. Ndr and GST-Ndr are detected with Ab^452-465 at 4 μg/ml (Millward, T. A., et al., Op. Cit.); GST is detected with an anti-GST antiserum (1 :1000 dilution). Bound antibodies are detected using horseradish peroxidase-conjugated donkey anti-rabbit IgG antibodies and ECL substrates (Amersham).
To verify whether this domain of Ndr is indeed responsible for its interaction with CaM, deletion mutants of Ndr are expressed in COS-1 cells and tested for CaM binding as above. […] In lysates supplemented with Ca^2 , deletion of amino acids 65-81 cause a large reduction in CaM binding (to ~10% of the level of wild-type binding) as assessed by western blotting.

[2] = tested on: S100B; assay: co-immunoprecipitation of Ndr with anti-S100B from COS-1 cells; type: cell-based; conditions: co-expressed with S100B
Procedure: For expression of Ndr and S100B in mammalian cells, the cDNAs encoding Ndr and S100B are cloned into the pECE vector, which directs expression driven by an SV40-derived promoter. In addition, an amino-terminal truncation mutant of Ndr lacking the first 84 amino acids (1-84) is used.
The plasmids encoding Ndr and S100B are transfected into COS-1 cells, either alone or in combination. Seventy-two hours later, cells extracts are prepared and immunoprecipitated with an antibody recognising S100B. In an anti-Ndr western blot of the cell extracts, it is shown that Ndr is expressed an expected.

[3] = tested on: calmodulin; conditions: cited from earlier work

## Ndr: nuclear serine/threonine protein kinase
[1]; lysate supplemented with EGTA
  binding to CaM-agarose: no detectable binding
[1]; lysates supplemented with Ca^2+
  binding to CaM-agarose: quantitatively and selectively removed from the lysate by CaM-agarose
[2]
  co-immunoprecipitation with anti-S100B: anti-S100B antibodies co-immunoprecipitated Ndr
[3]
  binding to calmodulin: capable of binding to calmodulin
